Ends that are not written are not given here.
Key:
mice [1] = assay: Elevated plus maze test (anxiety-related behaviour); assay type: in vivo, mouse; details: DOI doses 0.625 and 1.25; data not shown
mice [2] = assay: Open field test (anxiety-related behaviour); assay type: in vivo, mouse; details: 5 min test; CRF 1.5 μg into medial prefrontal cortex, DOI 0.15 mg/kg i.p.; vs vehicle-vehicle or single treatment
Experimental: Male CD-1 mice were obtained from Charles River Canada (St. Constant, Quebec) at 50-60 days of age, and were acclimatized to the laboratory for approximately 30 days before serving as experimental subjects. Mice were housed four per cage, until the time of surgery, after which they were housed individually. The vivarium was maintained on a 12-h light/dark cycle in a temperature (21° C.) controlled room with food and water freely available. Mice were anesthetized using isoflurane and stereotaxic surgery (David Kopf Instruments Model 940) was performed to install a cannulae into the medial prefrontal cortex. A Guide cannulae (Plastics One In), situated according to the mouse atlas of Franklin and Paxinos at Lateral=0.32 mm, D/V=2.25 mm, A/P=+2.68 mm. A dummy cannula, was inserted flush with guide. Approximately 1 week after behavioral testing mice were perfused with 4% paraformaldehyde. […]
In an initial test, mice were placed in a 45×45 cm open field, with an inner square of 21×24×24 cm., for a 5 min period, during which the time to enter the center area, and the total time spent in the center portion of the arena was recorded. […] Mice were individually placed in one of the enclosed arms of a plus-maze and the behavior of the animals was recorded over a 5 min period by a ceiling-mounted video camera. […]

mice [3] = assay: Elevated plus maze test (anxiety-related behaviour); assay type: in vivo, mouse; details: DOI 0.15 mg/kg i.p.; for entries to the closed arms of the plus maze: relative to vehicle
Experimental: Male CD-1 mice were obtained from Charles River Canada (St. Constant, Quebec) at 50-60 days of age, and were acclimatized to the laboratory for approximately 30 days before serving as experimental subjects. Mice were housed four per cage, until the time of surgery, after which they were housed individually. The vivarium was maintained on a 12-h light/dark cycle in a temperature (21° C.) controlled room with food and water freely available. Mice were anesthetized using isoflurane and stereotaxic surgery (David Kopf Instruments Model 940) was performed to install a cannulae into the medial prefrontal cortex. A Guide cannulae (Plastics One In), situated according to the mouse atlas of Franklin and Paxinos at Lateral=0.32 mm, D/V=2.25 mm, A/P=+2.68 mm. A dummy cannula, was inserted flush with guide. Approximately 1 week after behavioral testing mice were perfused with 4% paraformaldehyde. Brains were subsequently sectioned at 14 microns and stained with Cresyl violet for probe placement verification. Only the data from mice with correct probe placements were used in the analysis of the behavioral tests.
Drug diffusion was permitted for 5 min, and then after a further 5 min period mice were injected intraperotineally with DOI (Sigma) at a dose of 0.15 mg/kg or saline. Behavioral testing was conducted 15 min after the DOI treatment. In a second experiment the procedure was identical to that of the preceding study, except that mice were pretreated i.p. with either vehicle or 0.25 mg/kg of M100907 in a volume of 0.3 ml immediately prior to the DOI treatment. As in the preceding study mice were then tested in the elevated plus maze test (n=6-8)/group. Once again, data were obtained from videotapes and the researcher was blind as to the treatments mice had received.
In an initial test, mice were placed in a 45×45 cm open field, with an inner square of 21×24×24 cm., for a 5 min period, during which the time to enter the center area, and the total time spent in the center portion of the arena was recorded. The plus maze test was then conducted 1 min after the open field assessment. Mice were individually placed in one of the enclosed arms of a plus-maze and the behavior of the animals was recorded over a 5 min period by a ceiling-mounted video camera. The amount of time spent in each of the arms, the number of arm entries (an arm entry was defined as all four of the paws being placed in an arm of the plus-maze). The elevated plus-maze had two arms enclosed by 21 cm high walls; whereas the remaining two arms were open (arms were 24.8 cm long×7.7 cm wide). The maze was situated in a dimly lit room, such that the closed arms were darkened, whereas open arms were somewhat illuminated. All behavioural experiments were blinded. All experiments complied with the guidelines set by the Canadian Council on Animal Care and were approved by the Carleton University Animal Care Committee.

5-HT2AR = target: T1, 5-HT2AR (Homo sapiens, UniProt P28223); assay: 5-HT-stimulated inositol phosphate formation in HEK 293 cells transfected with FLAG-5-HT2AR and HA-CRFR1; assay type: cell-based; details: for effect on the CRFR1-dependent increase in 5-HT2AR-stimulated inositol phosphate formation following CRF pretreatment: CRF 500 nM 30 min, monensin 100 μM 30 min, Tat peptide 1 h pretreatment, or co-expressed dominant-negative protein
T1 construct: expressed in transfected cells; host or cells: HEK 293
T1 sequence (P28223 whole entry): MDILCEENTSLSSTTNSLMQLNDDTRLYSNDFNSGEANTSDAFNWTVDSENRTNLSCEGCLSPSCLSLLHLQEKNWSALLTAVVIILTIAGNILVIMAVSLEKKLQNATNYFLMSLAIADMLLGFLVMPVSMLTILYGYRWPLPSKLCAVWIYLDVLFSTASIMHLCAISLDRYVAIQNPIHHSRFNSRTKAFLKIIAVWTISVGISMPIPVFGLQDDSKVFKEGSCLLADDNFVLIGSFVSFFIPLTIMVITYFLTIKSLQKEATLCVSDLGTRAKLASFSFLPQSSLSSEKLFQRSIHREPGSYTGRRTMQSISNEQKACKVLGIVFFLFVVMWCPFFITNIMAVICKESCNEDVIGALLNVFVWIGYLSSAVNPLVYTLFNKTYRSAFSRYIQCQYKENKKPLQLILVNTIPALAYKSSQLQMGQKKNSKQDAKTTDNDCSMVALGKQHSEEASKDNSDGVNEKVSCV

CRFR1 = target: T2, CRFR1 (Homo sapiens, UniProt P34998); assay: CRF-stimulated cAMP formation (cAMP-Glo) in HEK 293 cells with FLAG-5-HT2AR and HA-CRFR1; assay type: cell-based; details: 5-HT 10 μM pretreatment 30 min
T2 construct: expressed in transfected cells; host or cells: HEK 293
T2 sequence (P34998 24-415): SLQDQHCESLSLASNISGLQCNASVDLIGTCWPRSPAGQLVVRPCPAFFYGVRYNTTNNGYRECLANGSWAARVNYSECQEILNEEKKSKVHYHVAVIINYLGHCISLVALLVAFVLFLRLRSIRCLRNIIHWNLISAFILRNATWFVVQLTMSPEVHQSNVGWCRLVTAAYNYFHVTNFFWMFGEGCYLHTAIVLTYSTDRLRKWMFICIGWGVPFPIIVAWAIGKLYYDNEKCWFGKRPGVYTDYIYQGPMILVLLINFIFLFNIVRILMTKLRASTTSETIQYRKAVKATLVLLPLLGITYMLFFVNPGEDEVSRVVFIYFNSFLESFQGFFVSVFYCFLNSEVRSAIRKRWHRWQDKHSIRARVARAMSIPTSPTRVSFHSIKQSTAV
Experimental: Briefly, HEK 293 cells transiently expressing FLAG-5-HT2AR and HA-CRFR1 were seeded into 96-well plate (10,000 cells/well). Two days after transfection, cells were incubated in the absence or presence of 10 μM 5-HT in induction buffer [HBSS, 500 μM isobutyl-1-methylxanthine (IBMX)] for 30 minutes at 37° C. […] Following stimulation, cells were solubilized with cAMP-Glo lysis buffer for 15 minutes with gentle shaking at room temperature. Lysates were carefully transferred to a white opaque 96-well plate and cAMP-Glo Detection solution containing protein kinase A was added for 20 minutes at room temperature followed by addition of Kinase-Glo Reagent for 10 min. Luminescence was measured using a Victor Reader (Perkin-Elmer, Walthan, Mass.).

[4] = target: endogenous CRFR1 of mouse prefrontal cortex (mouse) (UniProt P35347)
HA-CRFR1 [5] = target: HA-CRFR1
HA-CRFR1 [6] = target: HA-CRFR1; remark: listed apart in the source
[7] = first experiment, CRF 1.5 μg into medial prefrontal cortex
[8] = second experiment (M100907 study), CRF 1.5 μg mPFC, M100907 0.25 mg/kg i.p.

In the case of `COc1cc(CC(C)N)c(OC)cc1I` (stereo not shown) [DOI, 2,5-dimethoxy-4-iodoamphetamine], the “arm entries at significantly higher doses of DOI” value (mice [1]) is reported as “elevated arm entries”, the “latency to enter the center square of open field” value (mice [2]) is reported as “neither the CRF nor the DOI treatments alone influenced performance” and the “latency to enter an open arm of the plus maze” value (mice [3]; [7]) is reported as “modest reduction”. For the same molecule, the “number of entries into the closed arms of the plus maze” value (mice [3]; [7]) was “did not vary”, the “number of entries onto the open arms of the plus maze” value (mice [3]; [7]) was “modest reduction” and the “frequency of open arm entries in the plus maze” value (mice [3]; [8]) was “neither CRF nor DOI alone affected the frequency of open arm entries”. For the same molecule, the “latency to enter the open arms of the plus maze” value (mice [3]; [8]) was “did not influence the latencies”, the “time spent in the closed arms of the plus maze” value (mice [3]; [8]) was “unaffected” and the “entries to the closed arms of the plus maze” value (mice [3]; [8]) was “increased closed arm entries”.

With `CC[C@@]1([C@@H]2O[C@@H]([C@H]3O[C@@](O)(CO)[C@H](C)C[C@@H]3C)C[C@@H]2C)CC[C@H]([C@]2(C)CC[C@]3(C[C@H](O)[C@@H](C)[C@@H]([C@@H](C)[C@@H](OC)[C@H](C)C(=O)O)O3)O2)O1` [monensin] the “effect on the CRFR1-dependent increase in 5-HT2AR-stimulated inositol phosphate formation following CRF pretreatment” value (“effect on the CRFR1-dependent increase” below) (5-HT2AR) was “attenuated the increase in 5-HT2AR signaling” and the “effect on 5-HT2AR signaling in the absence of CRF pretreatment” value (5-HT2AR; monensin 100 μM for 30 min, no CRF) was “did not affect 5-HT2AR signaling”.

`NCCc1c[nH]c2ccc(O)cc12` [5-HT, serotonin] was tested, and the “effect of pretreatment on CRFR1 responsiveness (CRFR1-mediated cAMP formation)” value (CRFR1) was “had no effect”.

With `COc1cccc([C@H](O)C2CCN(CCc3ccc(F)cc3)CC2)c1OC` [M100907] the “frequency of open arm entries in the plus maze” value (mice [3]; [8]) was “did not make any entries onto the open arm”, the “latency to enter the open arms of the plus maze” value (mice [3]; [8]) was “none of the mice entered the open arms” and the “time spent in the closed arms of the plus maze” value (mice [3]; [8]) was “increased”. For the same molecule, the “time spent in the open arms of the plus maze” value (mice [3]; [8]) was “profoundly influenced” and the “entries to the closed arms of the plus maze” value (mice [3]; [8]) was “reduced the frequency of arm entries”.

SEEPPISLDLTFHLLREVLEMARAEQLAQQAHSNRKLMEII (ligand, UniProt P06850 154-194, looked up, species assumed, ends and bridges not checked) [corticotropin releasing factor (CRF) peptide] showed a 5-HT-stimulated inositol phosphate formation in prefrontal cortex slices [4] of 2.3 fold, a loss of cell surface HA-CRFR1 (flow cytometry) (HA-CRFR1 [5]) of 24% and a cell surface expression of 5-HT2AR (biotinylation) (HA-CRFR1 [6]) of 3.7 fold.

B1: Dynamin I-K44A: dominant-negative inhibitor of clathrin-mediated endocytosis, expressed in cells (protein, UniProt Q05193 1-864, looked up, variant K44A)
Dynamin-1: MGNRGMEDLIPLVNRLQDAFSAIGQNADLDLPQIAVVGGQSAGASSVLENFVGRDFLPRGSGIVTRRPLVLQLVNATTEYAEFLHCKGKKFTDFEEVRLEIEAETDRVTGTNKGISPVPINLRVYSPHVLNLTLVDLPGMTKVPVGDQPPDIEFQIRDMLMQFVTKENCLILAVSPANSDLANSDALKVAKEVDPQGQRTIGVITKLDLMDEGTDARDVLENKLLPLRRGYIGVVNRSQKDIDGKKDITAALAAERKFFLSHPSYRHLADRMGTPYLQKVLNQQLTNHIRDTLPGLRNKLQSQLLSIEKEVEEYKNFRPDDPARKTKALLQMVQQFAVDFEKRIEGSGDQIDTYELSGGARINRIFHERFPFELVKMEFDEKELRREISYAIKNIHGIRTGLFTPDMAFETIVKKQVKKIREPCLKCVDMVISELISTVRQCTKKLQQYPRLREEMERIVTTHIREREGRTKEQVMLLIDIELAYMNTNHEDFIGFANAQQRSNQMNKKKTSGNQDEILVIRKGWLTINNIGIMKGGSKEYWFVLTAENLSWYKDDEEKEKKYMLSVDNLKLRDVEKGFMSSKHIFALFNTEQRNVYKDYRQLELACETQEEVDSWKASFLRAGVYPERVGDKEKASETEENGSDSFMHSMDPQLERQVETIRNLVDSYMAIVNKTVRDLMPKTIMHLMINNTKEFIFSELLANLYSCGDQNTLMEESAEQAQRRDEMLRMYHALKEALSIIGDINTTTVSTPMPPPVDDSWLQVQSVPAGRRSPTSSPTPQRRAPAVPPARPGSRGPAPGPPPAGSALGGAPPVPSRPGASPDPFGPPPQVPSRPNRAPPGVPSRSGQASPSRPESPRPPFDL
B1 was tested, and the “effect on the CRFR1-dependent increase” value (5-HT2AR) was “completely eliminated”.

B2: Rab11-S25N: dominant negative Rab11 protein inhibiting receptor recycling via slow recycling endosomes (protein, UniProt P62491 2-213, looked up, variant S25N)
Ras-related protein Rab-11A: GTRDDEYDYLFKVVLIGDSGVGKNNLLSRFTRNEFNLESKSTIGVEFATRSIQVDGKTIKAQIWDTAGQERYRAITSAYYRGAVGALLVYDIAKHLTYENVERWLKELRDHADSNIVIMLVGNKSDLRHLRAVPTDEARAFAEKNGLSFIETSALDSTNVEAAFQTILTEIYRIVSQKQMSDRRENDMSPSNNVVPIHVPPTTENKPKVQCC
B2 was tested, and the “effect on the CRFR1-dependent increase” value (5-HT2AR) was “but not the overexpression of Rab11-S25N, blocked the increase”.
